Test results published in patent US20240327415A1, “Multicomponent Complexes, Including Salts, Crystalline Forms, and Hydrates and Solvates of ENT1 Inhibitors” (iTeos Belgium SA, priority 2023, published 2024).

Experiments:
[1] = salt screen, XRPD of damp, dried and 40° C./75% RH stored samples (Salt Preparation Methods 1 and 2); format: physicochemical; design: key: A = amorphous; Evap. = isolated via evaporation
Description: Salt Preparation Method 1: Approximately 25 mg of Compound 1 (free base) was weighed out into 1.5 mL screw-cap vials and a stirrer bar was added. For solid counterions, the appropriate amount of acid (1.0 or 2.0 equiv.) was weighed into separate 1.5 mL screw-cap vials. 100 μL of the appropriate solvent system was added to both the Compound 1 and the solid counterions. Stock solutions of liquid counterions were prepared, such that 100 μL contained 1.0 or 2.0 equiv. of acid. See counterion and solvent lists in Table 60 and Table 61 respectively.
The samples were stirred at 40° C. for 5-10 min and then the acid solutions were added to Compound 1, rinsing out the transfer vial with a further 50 μL of solvent. […] Experiments were temperature cycled between 40° C. and 5° C. (1 h hold; 0.1° C./min ramp/cool) for ca. 24-68 h. Anti-solvent addition (ASA) was carried out to slurries at 5° C. then experiments were heated to 30° C. over 1 h. ASA was carried out at 30° C. or 40° C. where clear solutions or gums were observed.
Temperature cycling was then continued for ca. 16-69 h, followed by further ASA and temperature cycling if required. Material was isolated at 5° C. and analyzed damp by XRPD. All isolated material was dried under vacuum at ca. 40° C. for ca. 17-91 h then re-analyzed by XRPD. The XRPD plate was stored at 40° C./75% RH for 24-48 h and then samples re-analyzed. Solutions were stored uncapped at ambient temperature to evaporate. Any residual solids were analyzed by XRPD.
Salt Preparation Method 2: The general procedure adopted in preparing the potential salts is outlined below. A known mass of Compound 1 (free base) and a known volume of the appropriate solvent system were added to 20 mL scintillation vials. The required mol. equiv. of the appropriate counterions were added to the vials as solutions or slurries in the corresponding solvent system.
The experiments were stirred at 40° C. for ca. 1 h, and then temperature cycled between 40° C. and 5° C. with 0.1° C./min ramp and 1 h hold between each step. Anti-solvent additions and subsequent slurrying at 5° C. were employed in order to facilitate crystallization. […] The damp and dried solids were subsampled and analyzed by XRPD. Where applicable, the dried solids were stored at 40° C./75% RH for 24-48 h in order to improve the crystallinity and/or facilitate solid form conversion to the desired form.

[2] = seven-day solid stability studies (ambient; 40° C./75% RH; 80° C.), XRPD and HPLC; format: physicochemical; design: key to XRPD Analysis: Amorphous Compound 1 (free base); Crystalline Form 1 Compound 1 (free base)
Description: In the experiment, one set of vials was exposed to ambient light, temperature and humidity conditions. Another was exposed openly to 40° C. and 75% RH conditions and a third was sealed and exposed to 80° C. conditions. After 7 days, XRPD and HPLC measurements were collected.
Example 12-Stability Studies of Amorphous Compound 1 (free base) and Crystalline Form 1 Compound 1 (free base): Seven-day stability studies were carried out comparing amorphous Compound 1 (free base) and crystalline Form 1 Compound 1 (free base) at 40° C./75% RH, under ambient conditions and at 80° C. After storage at 40° C./75% RH and 80° C., the amorphous material formed glassy solids which were pale yellow (40° C./75% RH) or orange (80° C.). It is likely that the material melted and re-solidified at 80° C. and deliquesced at 40° C./75% RH. […] (decrease in purity of ca. 11% area).
Example 15-Stabilities Studies-Crystalline Form 3 Compound 1 di(hydrogen sulfate) and Crystalline Form 4 Compound 1 mono(hydrogen sulfate): Seven-day stability studies were carried out on the prepared crystalline Form 3 Compound 1 di(hydrogen sulfate) and crystalline Form 4 Compound 1 mono(hydrogen sulfate) using the following conditions: (1) Ambient light, temperature and humidity conditions (open vial); (2) 40° C./75% RH (open vial); and (3) 80° C. (closed vial). After 7 days of storage under the specified conditions, XRPD and HPLC analyses were carried out on the residual solid materials, and the results are summarized in Table 51.
Example 18-Seven Day Stability Study on Crystalline Form 2 Compound 1 di(hydrogen sulfate) trihydrate: A 7-day stability study was conducted on crystalline Form 2 Compound 1 di(hydrogen sulfate) trihydrate using the following conditions: (1) ambient light, temperature, and humidity conditions (open vial); (2) 40° C., 75% RH (open vial); and (3) 80° C. (closed vial). After 7 days of storage under the specified, XRPD and HPLC analyses were carried out on the residual solid materials.

[3] = Benzenesulfonic acid, 2 equiv., Acetonitrile, AS tBME
[4] = Benzenesulfonic acid, 2 equiv., Ethanol, AS Heptane
[5] = Benzenesulfonic acid, 2 equiv., Ethyl acetate, AS Heptane
[6] = Benzenesulfonic acid, 2 equiv., IPA:H2O (75:25), AS tBME
[7] = Benzenesulfonic acid, 2 equiv., MEK, AS Heptane
[8] = Benzenesulfonic acid, 2 equiv., THF, AS Heptane
[9] = Hydrochloric acid, 1 equiv., Acetonitrile, AS tBME, (evap.)
[10] = Hydrochloric acid, 1 equiv., Ethanol*, AS Heptane, (evap.)
[11] = Hydrochloric acid, 1 equiv., Ethyl acetate, AS Heptane
[12] = Hydrochloric acid, 1 equiv., IPA:H2O (75:25% v/v), AS tBME, (evap.)
[13] = Hydrochloric acid, 1 equiv., MEK, AS Heptane
[14] = Hydrochloric acid, 1 equiv., THF, AS Heptane

SMILES: O=S(=O)(O)c1ccccc1 [Benzenesulfonic acid, 2 equiv.]
- XRPD Analysis 40° C. 75% RH [1, 3]: A
- XRPD Analysis Damp [1, 3]: A
- XRPD Analysis Dry [1, 3]: A
- XRPD Analysis 40° C. 75% RH [1, 4]: A
- XRPD Analysis Damp [1, 4]: A
- XRPD Analysis Dry [1, 4]: A
- XRPD Analysis 40° C. 75% RH [1, 5]: A
- XRPD Analysis Damp [1, 5]: A
- XRPD Analysis Dry [1, 5]: A
- XRPD Analysis 40° C. 75% RH [1, 6]: A
- XRPD Analysis Damp [1, 6]: A
- XRPD Analysis Dry [1, 6]: A
- XRPD Analysis 40° C. 75% RH [1, 7]: A
- XRPD Analysis Damp [1, 7]: A
- XRPD Analysis Dry [1, 7]: A
- XRPD Analysis 40° C. 75% RH [1, 8]: A
- XRPD Analysis Damp [1, 8]: A
- XRPD Analysis Dry [1, 8]: A

SMILES: COc1cc(C(=O)O[C@@H]2CCCOc3cc(cc(OC)c3OC)C(=O)NCCCN3CCCN(CC2)CC3)cc(OC)c1OC [Form 1 Compound 1]
- XRPD Analysis ([2]; 7 days, 40° C./75% RH): A
- Post-Storage Observations ([2]; 7 days, 80° C.): Orange glassy
- Solid Purity ([2]; 7 days, 80° C.): 84.1 % area
- XRPD Analysis ([2]; 7 days, 80° C.): 1
- Post-Storage Observations ([2]; 7 days, Ambient): White solid
- Solid Purity ([2]; 7 days, Ambient): 99.9 % area
- XRPD Analysis ([2]; 7 days, Ambient): A

SMILES: COc1cc(C(=O)O[C@@H]2CCCOc3cc(cc(OC)c3OC)C(=O)NCCCN3CCCN(CC2)CC3)cc(OC)c1OC.O=S(=O)(O)O [Form 4 mono(hydrogen sulfate)]
- HPLC ([2]; 7 days, 40° C./75% RH (open vial)): 99.87 % area
- HPLC ([2]; 7 days, 40° C./75% RH, open vial): 99.87 % area
- HPLC ([2]; 7 days, 80° C. (closed vial)): 99.64 % area
- XRPD ([2]; 7 days, 80° C. (closed vial)): Amorphous*
- HPLC ([2]; 7 days, 80° C., sealed): 99.64 % area
- XRPD ([2]; 7 days, 80° C., sealed): Amorphous*
- HPLC ([2]; 7 days, Ambient (open vial)): 99.89 % area
- HPLC ([2]; 7 days, Ambient, open vial): 99.89 % area
- HPLC ([2]; Input sample): 99.66 % area

SMILES: Cl [Hydrochloric acid, 1 equiv.]
- XRPD Analysis 40° C. 75% RH ([1]; Hydrochloric acid, 1 equiv., Acetonitrile, AS tBME): A
- XRPD Analysis Damp [1, 9]: A
- XRPD Analysis Dry [1, 9]: A
- XRPD Analysis 40° C. 75% RH ([1]; Hydrochloric acid, 1 equiv., Ethanol*, AS Heptane): A
- XRPD Analysis Damp [1, 10]: A
- XRPD Analysis Dry [1, 10]: A
- XRPD Analysis 40° C. 75% RH [1, 11]: A
- XRPD Analysis Damp [1, 11]: A
- XRPD Analysis Dry [1, 11]: A
- XRPD Analysis 40° C. 75% RH ([1]; Hydrochloric acid, 1 equiv., IPA:H2O (75:25% v/v), AS tBME): A
- XRPD Analysis Damp [1, 12]: A
- XRPD Analysis Dry [1, 12]: A
- XRPD Analysis 40° C. 75% RH [1, 13]: A
- XRPD Analysis Damp [1, 13]: A
- XRPD Analysis Dry [1, 13]: A
- XRPD Analysis 40° C. 75% RH [1, 14]: A
- XRPD Analysis Damp [1, 14]: A
- XRPD Analysis Dry [1, 14]: A
